Assay results from patent US11365202B2, “Antimalarial compounds, process for preparation and their use for drug resistant malaria” (Council of Scientific and Industrial Research, priority 2018, dated 2022).

Experiments:
P. falciparum 3D7 = assay: P. falciparum growth inhibition assay, 3D7 strain; format: cell-based; conditions: Plasmodium falciparum, 3D7, 48 h, read-out: EC50 on P. falciparum 3D7
Method: (§1) P. falciparum strain 3D7, Dd2 and 7G8 were cultured in RPMI media (Invitrogen) supplemented with 0.5% albumax and 4% haematocrit using a protocol described previously [Trager and Jensen (Science,1976; 193:673-675)]. Cultures were synchronized by repeated sorbitol treatment following Lambros and Vanderberg (J Parasitol; 1979; 65:418-420). Each growth inhibition assay was performed in triplicate and the experiment was repeated twice. Each well contained 0.5 ml of complete media [RPMI (invitrogen) with 0.5% albumax], 4% haematocrit and the parasitaemia adjusted to ˜1%; the compound added to the parasite cultures to desired final concentrations (0-100 µM) and same amount of solvent (DMSO) was added to the control wells. The cultures were allowed to grow further for 48 h. Parasite growth was assessed by DNA fluorescent dye-binding assay using SYBR green (Sigma) following Smilkstein et al (Antimicrob Agents Chemother.; 2004, 48, 1803-1806). • f) In Vitro Toxicity Assay on CHO Cells

P. falciparum 7G8 = assay: P. falciparum growth inhibition assay, 7G8 strain; format: cell-based; conditions: Plasmodium falciparum, 7G8, read-out: EC50 on P. falciparum 7G8
Method: as §1

P. falciparum Dd2 = assay: P. falciparum growth inhibition assay, Dd2 strain; format: cell-based; conditions: Plasmodium falciparum, DD2, read-out: EC50 on P. falciparum Dd2
Method: as §1

P. berghei = assay: In vivo parasiticidal assay with P. berghei mice malaria model; conditions: for protection in treated group of mice: 12.5 mg/kg of body weight; for Complete Protection - Mice with complete parasite clearance / Survival after treatment: 4 doses of 12.5 mg/Kg of body weight, infected BALB/c mice
Method: Five groups of female BALB/c mice, 6-8 weeks of age (four mice/group) were used for testing the in vivo parsiticidal and protective efficacy of different drug treatments. Mice were injected IP with 1×10^6 P. berghei infected erythrocytes. The drug treatment was initiated 5 days after inducing parasitemia; mice in a group were given 4 doses of a compound at 12.5 mg/Kg of body weight. Control mice were given solvent alone. The parasitemia was assessed everyday in thin smears of Giemsa stained RBCs from tail blood of each mouse, by counting parasitized erythrocytes in more than 10,000 erythrocytes. Time of death of the mice in each group was also monitored.

A549 human cells = assay: In vitro toxicity on mammalian cell culture; format: cell-based; conditions: for EC50: Homo sapiens, A549, in vitro toxicity

Compound	EC50 (P. falciparum 3D7) [nM]	EC50 (P. falciparum 7G8) [nM]	EC50 (P. falciparum Dd2) [nM]	protection in treated group of mice (P. berghei) [%]	Complete Protection - Mice with complete parasite clearance (P. berghei)	Survival after treatment (P. berghei) [days]	in vitro toxicity on A549 human cells (in words) (A549 human cells)	EC50 (A549 human cells) [nM]
CCOP(=O)(/C=C/C(NC(=O)[C@H](CC(C)C)NC(=O)[C@H](CO[C@H]1O[C@@H]2OC3(C)CC[C@H]4[C@H](C)CC[C@@H]([C@H]1C)[C@@]24OO3)NC(=O)OCc1ccccc1)c1ccccc1)OCC (stereo in doubt) [Compound 3, Benzyl ((2S)-1-(((2S)-1-(((E)-3-(diethoxyphosphoryl)-1-phenylallyl)amino)-4-methyl-1-oxopentan-2-yl)amino)-1-oxo-3-(((3R,5aS,6R,8aS,9R,10S,12R,12aR)-3,6,9-trimethyldeca hydro-12H-3,12-epoxy[1,2]dioxepino[4,3-i]isochromen-10-yl)oxy)propan-2-yl)carbamate]	3.3	0.23	3.5	100	100% of treated mice	>60	non-toxic	3820 ± 161
CCOP(=O)(/C=C/C(NC(=O)[C@H](CC(C)C)NC(=O)[C@@H]1C[C@@H](O[C@H]2O[C@@H]3OC4(C)CC[C@H]5[C@H](C)CC[C@@H]([C@H]2C)[C@@]35OO4)CN1C(=O)OCc1ccccc1)c1ccccc1)OCC (stereo in doubt) [Compound 5, Benzyl (2S,4R)-2-(((2S)-1-(((E)-3-(diethoxyphosphoryl)-1-phenylallyl)amino)-4-methyl-1-oxopentan-2-yl)carbamoyl)-4-(((3R,5aS,6R,8aS,9R,10S,12R,12aR)-3,6,9-trimethyldeca hydro-12H-3,12-epoxy[1,2]dioxepino[4,3-i]isochromen-10-yl)oxy)pyrrolidine-1-carboxylate]	2.57	1.2	5.5	100	100% of treated mice	>60	non-toxic	1280 ± 156
